Results reported in US20240059688A1, “CONOLIDINE ANALOGUES AS SELECTIVE ACKR3 MODULATORS FOR THE TREATMENT OF CANCER” (Luxembourg Institute of Health (LIH), priority 2020, published 2024).

What was measured:
Type in all cases: cell-based
[1] = biological target: T1, NOP (Homo sapiens, UniProt P41146); experiment: NanoBiT-based β-arrestin-2 recruitment assay, NOP; settings: concentration range 0.15 nM to 80 μM; reference Nociceptin
T1 construct: expressed in transfected cells; host or cells: U87
Procedure: The ability of the different molecules to activate the four opioid receptors MOR, DOR, KOR and NOP that are known to mediate in vivo analgesic effects was tested using the NanoBiT-based β-arrestin-2 recruitment assay in a concentration range of 0.15 nM to 80 μM. For each of these receptors a reference ligand corresponding to an endogenous opioid peptide i.e. Met-enkephalin, BAM22, Dynorphin A and Nociceptin, respectively was included.
Ligand-induced β-arrestin recruitment to chemokine and opioid receptors was monitored by NanoLuc complementation assay (NanoBiT, Promega). In brief, 1.2×10^6 U87 cells were plated in 10-cm culture dishes and 48 hours later co-transfected with pNBe vectors encoding GPCRs (ACKR3, MOR, DOR, KOR, or NOP) C-terminally tagged with SmBiT and human β-arrestin-1 (arrestin-2) or β-arrestin-2 (arrestin-3) N-terminally fused to LgBiT. 48 hours post-transfection cells were harvested, incubated 25 minutes at 37° C. with Nano-Glo Live Cell substrate diluted 200-fold and distributed into white 96-well plates (5×10^4 cells per well). Ligand-induced, β-arrestin to GPCRs was evaluated with a Mithras LB940 luminometer (Berthold Technologies, running on MicroWin 2010 5.19 software (Mikrotek Laborsysteme)) for 20 minutes.
For concentration-response curves (FIG. 2), the signal recorded with a saturating concentration of full agonist for each receptor was set as 100%. […]

[2] = biological target: MOR (Homo sapiens, UniProt P35372); experiment: MOR calcium mobilization agonist/antagonist screen (CHO-RD-HGA16 cells); parameters: host or cells: CHO-RD-HGA16; settings: single concentration; for Emax: CHO-RD-HGA16, agonist screen, control agonist DAMGO
Procedure: Compounds were evaluated for kappa (KOR), mu (MOR), and delta (DOR) opioid receptor agonist and antagonist activity in three individual cell lines overexpressing Gαq16 (CHO-RD-HGA16, Molecular Devices) and the human kappa, mu, and delta opioid receptors, respectively. The day before the assay, cells were plated into 96-well black-walled assay plates at 30,000 cells/well in Ham's F12 supplemented with 10% fetal bovine serum, and 100 units of penicillin and streptomycin. The cells were incubated overnight at 37° C., 5% CO2. Prior to the assay, Calcium 5 dye (Molecular Devices) was reconstituted according to the manufacturer's instructions. The reconstituted dye was diluted 1:40 in pre-warmed (37° C.) assay buffer (1×HBSS, 20 mM HEPES, 2.5 mM probenecid, pH 7.4 at 37° C.). Growth medium was removed and the cells were gently washed with 100 μL of pre-warmed (37° C.) assay buffer. The cells were incubated for 45 minutes at 37° C., 5% CO2 in 200 μL of the diluted Calcium 5 dye. For the agonist screen, a single concentration of each test compound and receptor-specific controls (U69,593, DAMGO, and DPDPE for KOR, MOR, and DOR, respectively) were prepared at 10× the desired final concentration in 1% DMSO/assay buffer, aliquoted into a 96-well polystyrene plate, and warmed to 37° C. After the dye-loading incubation period, pretreatment solution was added to each well (25 μL of 9% DMSO/assay buffer) and, after 15 min, the plate was read with a FlexStation II (Molecular Devices). Calcium-mediated changes in fluorescence were monitored every 1.52 seconds over a 60 second time period, with the FlexStation II adding 50 μL of test compounds at the 19 second time point (excitation at 485 nm, detection at 525 nm). Peak kinetic reduction (SoftMax, Molecular Devices) relative fluorescence units (RFU) were used to calculate % control agonist Emax with the equation % Emax=(test compound RFU/control agonist RFU)×100. For the antagonist screens, the same procedure was followed except that the pretreatment solution consisted of the test compounds (prepared at […] the desired final concentration in 9% DMSO/assay buffer) and the FlexStation added the EC60 concentration (prepared at 10× the desired final concentration in 1% DMSO/assay buffer) of each respective control agonist. Peak RFU were used to calculate % control EC60 inhibition with the equation % inhibition=((EC60 RFU−test compound RFU)/EC60 RFU)×100. When IC50 determinations were made, the same antagonist screen procedure was followed except that cells were pretreated with 8-pt concentration-response curves of the test compounds. Peak RFU were plotted against the log of compound concentration using non-linear regression analysis to generate IC50 values (GraphPad Prism). Each test sample was analyzed in duplicate in two independent experiments.

[3] = biological target: ACKR3 (Homo sapiens, UniProt P25106); experiment: ACKR3 internalization assay by flow cytometry in U87-ACKR3 cells; parameters: expressed in transfected cells; host or cells: U87-ACKR3 (ACKR3-negative U87 as control); settings: 45 minutes at 37° C., anti-ACKR3 mAb 11G8, FIG. 6 section A
Procedure: For determination of receptor surface expression levels by flow cytometry, U87-ACKR3 cells were stimulated with WW-1 or WW-12 (50, 10, 5 1 μM) or BAM22 or ctrl peptides (1 μM) for 45 minutes at 37° C. The remaining surface-bound ligands were then removed by a brief wash with 150 mM NaCl, 50 mM glycine, pH 3 and twice with FACS buffer. Cell surface levels of ACKR3 were then measured by flow cytometry using a saturating concentration of receptor-specific mAb (clones 11G8) and a secondary phycoerythrin-conjugated F(ab′)2 fragment anti-mouse IgG (Jackson ImmunoResearch). Dead cells were excluded using the Zombie NIR fixable viability dye (BioLegend, catalog #423106, dilution 1:2000). Mean fluorescence intensity was quantified on a Novocyte Quanteon flow cytometer (ACEA Biosciences) using NovoExpress 1.4.1 (ACEA Biosciences).

MOR, sequence (P35372 whole entry): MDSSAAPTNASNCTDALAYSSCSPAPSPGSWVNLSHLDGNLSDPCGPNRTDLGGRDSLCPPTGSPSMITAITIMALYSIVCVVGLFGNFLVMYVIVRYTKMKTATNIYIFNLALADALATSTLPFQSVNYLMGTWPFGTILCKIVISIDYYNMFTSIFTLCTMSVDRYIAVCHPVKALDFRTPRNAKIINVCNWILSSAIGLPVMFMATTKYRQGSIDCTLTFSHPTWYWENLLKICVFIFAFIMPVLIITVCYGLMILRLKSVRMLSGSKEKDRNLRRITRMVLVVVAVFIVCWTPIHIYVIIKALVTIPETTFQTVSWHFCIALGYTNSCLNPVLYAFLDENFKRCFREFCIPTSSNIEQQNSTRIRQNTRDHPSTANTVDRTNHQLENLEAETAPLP
T1 sequence (P41146 whole entry): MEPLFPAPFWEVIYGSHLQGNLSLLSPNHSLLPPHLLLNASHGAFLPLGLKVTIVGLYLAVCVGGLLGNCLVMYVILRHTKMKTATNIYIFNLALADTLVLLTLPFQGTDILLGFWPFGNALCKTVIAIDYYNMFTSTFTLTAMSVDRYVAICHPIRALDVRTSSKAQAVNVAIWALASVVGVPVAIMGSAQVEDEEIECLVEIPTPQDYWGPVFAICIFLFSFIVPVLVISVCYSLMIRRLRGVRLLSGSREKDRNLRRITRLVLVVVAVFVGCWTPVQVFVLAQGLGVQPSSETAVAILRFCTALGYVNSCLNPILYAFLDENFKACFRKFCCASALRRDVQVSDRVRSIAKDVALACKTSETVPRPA
ACKR3, sequence (P25106 whole entry, the tested form may be a part): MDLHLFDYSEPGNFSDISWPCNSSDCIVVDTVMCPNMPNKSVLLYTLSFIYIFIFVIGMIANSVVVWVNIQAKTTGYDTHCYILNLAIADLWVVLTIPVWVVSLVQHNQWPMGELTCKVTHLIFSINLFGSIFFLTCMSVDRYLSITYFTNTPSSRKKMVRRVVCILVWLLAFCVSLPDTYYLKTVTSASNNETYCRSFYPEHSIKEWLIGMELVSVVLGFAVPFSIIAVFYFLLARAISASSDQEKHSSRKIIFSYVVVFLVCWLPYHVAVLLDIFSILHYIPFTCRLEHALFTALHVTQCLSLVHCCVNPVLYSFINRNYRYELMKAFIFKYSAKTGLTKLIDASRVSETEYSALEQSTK

| Compound | activation of NOP (β-arrestin-2 recruitment) [1] | Emax [2] [%] | MOR Calcium % DAMGO Inhibition ([2]; antagonist screen, vs EC60 of DAMGO) [%] | ACKR3 internalization from the plasma membrane [3] |
| --- | --- | --- | --- | --- |
| C/C=C1/CN2CC[C@H]1C(=O)c1[nH]c3ccccc3c1C2 [WW-1, (4E,5R)-4-ethylidene-1,4,5,7-tetrahydro-2,5-ethanoazocino[4,3-b]indol-6(3H)-one] | not active | 0 | 3 | able to induce receptor internalization |
| C/C=C1/CN(CCCCC)CC[C@H]1C(=O)c1cc2ccccc2[nH]1 [WW-12, [(3E,4R)-3-ethylidene-1-pentylpiperidin-4-yl](1H-indol-2-yl)methanone] | not active | 11 |  | able to induce receptor internalization |
